In brackets after ≈: the same amount, converted by molar mass.
Columns and labels:
Assay type in all cases: cell-based
E. coli ATCC 25922 = test: MIC broth microdilution, standard strain; conditions: Escherichia coli, ATCC25922; E. coli ATCC 25922, standard strain, 19 h at 35 °C; read-out: minimal inhibitory concentration (MIC)
Method: (§1) All synthesized compounds were tested in vitro against a set of bacteria, including representative standard Gram-positive and Gram-negative rods. Compounds were screened for their minimal inhibitory concentrations (MICs). […] These three compounds were also found to be good inhibitors of the growth of Gram-negative rods: […] The antimicrobial assays were conducted using reference strains of bacteria derived from international microbe collections: American Type Culture Collection (ATCC) and National Collection of Type Culture (NCTC). The following standard strains of bacteria were used: Gram-positive-Staphylococcus aureus NCTC 4163, Staphylococcus aureus ATCC 25923, Staphylococcus aureus ATCC 6538, Staphylococcus aureus ATCC 29213, Staphylococcus epidermidis ATCC 12228, Staphylococcus epidermidis ATCC 35984, Gram-negative: Escherichia coli ATCC 25922, Pseudomonas aeruginosa ATCC 15442. Clinical strains of bacteria used in this study: Gram-positive: Staphylococcus epidermidis 5253, Staphylococcus epidermidis 4243, Staphylococcus aureus […], Staphylococcus aureus […] and Gram-negative: Escherichia coli 520, Escherichia coli 600, Klebsiella pneumoniae 510 and Pseudomonas aeruginosa 659 were obtained from the collection of the Department of Pharmaceutical Microbiology, Medical University of Warsaw, Poland and they were isolated from different biological materials taken from the patients hospitalized in the Warsaw Medical University hospitals. Antimicrobial activity was examined by the minimal inhibitory concentration (MIC) method under standard procedures provided by CLSI with some modifications. MIC was determined by the two-fold serial broth microdilution method in 96-well microtitration plates using Mueller-Hinton II broth medium (Becton Dickinson, Franklin Lakes, NJ, USA). The final inoculum of all studied bacteria was 10^6 CFU/mL (colony forming unit per milliliter). The stock solution of tested compounds was prepared in dimethyl sulfoxide (DMSO) and diluted to a maximum of 1% of solvent content with a sterile medium.

P. aeruginosa ATCC 15442 = test: MIC broth microdilution, standard strain; conditions: Pseudomonas aeruginosa, ATCC15442; P. aeruginosa ATCC 15442, standard strain, 19 h at 35 °C; read-out: minimal inhibitory concentration (MIC)
Method: as §1

S. aureus ATCC 25923 = test: MIC broth microdilution, standard strain; conditions: Staphylococcus aureus, ATCC25923; S. aureus ATCC 25923, standard strain, 19 h at 35 °C; read-out: minimal inhibitory concentration (MIC)
Method: as §1

S. aureus NCTC 4163 = test: MIC broth microdilution, standard strain; conditions: Staphylococcus aureus, NCTC4163; S. aureus NCTC 4163, standard strain, 19 h at 35 °C; read-out: minimal inhibitory concentration (MIC)
Method: as §1

E. coli 520 = test: MIC broth microdilution, clinical isolate; conditions: Escherichia coli; E. coli 520, clinical isolate, 19 h at 35 °C; read-out: minimal inhibitory concentration (MIC)
Method: (§2) In the next stage of the experiment, 8 of 11 compounds were selected for a clinical strain activity evaluation against S. aureus, S. epidermidis, E. coli, K. pneumoniae, and P. aeruginosa.
(§3) The antimicrobial assays were conducted using reference strains of bacteria derived from international microbe collections: American Type Culture Collection (ATCC) and National Collection of Type Culture (NCTC). The following standard strains of bacteria were used: Gram-positive—Staphylococcus aureus NCTC 4163, Staphylococcus aureus ATCC 25923, Staphylococcus aureus ATCC 6538, Staphylococcus aureus ATCC 29213, Staphylococcus epidermidis ATCC 12228, Staphylococcus epidermidis ATCC 35984, Gram-negative: Escherichia coli ATCC 25922, Pseudomonas aeruginosa ATCC 15442. Clinical strains of bacteria used in this study: Gram-positive: Staphylococcus epidermidis 5253, Staphylococcus epidermidis 4243, Staphylococcus aureus T5592, Staphylococcus aureus T5591 and Gram-negative: Escherichia coli 520, Escherichia coli 600, Klebsiella pneumoniae 510 and Pseudomonas aeruginosa 659 were obtained from the collection of the Department of Pharmaceutical Microbiology, Medical University of Warsaw, Poland and they were isolated from different biological materials taken from the patients hospitalized in the Warsaw Medical University hospitals. […] MIC was determined by the two-fold serial broth microdilution method in 96-well microtitration plates using Mueller–Hinton II broth medium (Becton Dickinson, Franklin Lakes, NJ, USA). The final inoculum of all studied bacteria was 10^6 CFU/mL (colony forming unit per milliliter). The stock solution of tested compounds was prepared in dimethyl sulfoxide (DMSO) and diluted to a maximum of 1% of solvent content with a sterile medium.

E. coli 600 = test: MIC broth microdilution, clinical isolate; conditions: Escherichia coli; E. coli 600, clinical isolate, 19 h at 35 °C; read-out: minimal inhibitory concentration (MIC)
Method: as §2, §3

K. pneumoniae 510 = test: MIC broth microdilution, clinical isolate; conditions: Klebsiella pneumoniae; K. pneumoniae 510, clinical isolate, 19 h at 35 °C; read-out: minimal inhibitory concentration (MIC)
Method: as §2, §3

P. aeruginosa 659 = test: MIC broth microdilution, clinical isolate; conditions: Pseudomonas aeruginosa; P. aeruginosa 659, clinical isolate, 19 h at 35 °C; read-out: minimal inhibitory concentration (MIC)
Method: as §2, §3

S. aureus T5591 = test: MIC broth microdilution, clinical isolate; conditions: Staphylococcus aureus, 19 h at 35 °C, read-out: minimal inhibitory concentration (MIC)
Method: as §2, §3

S. aureus T5592 = test: MIC broth microdilution, clinical isolate; conditions: Staphylococcus aureus, 19 h at 35 °C, read-out: minimal inhibitory concentration (MIC)
Method: as §2, §3

S. epidermidis 4243 = test: MIC broth microdilution, clinical isolate; conditions: Staphylococcus epidermidis; S. epidermidis 4243, clinical isolate, 19 h at 35 °C; read-out: minimal inhibitory concentration (MIC)
Method: as §2, §3

S. epidermidis 5253 = test: MIC broth microdilution, clinical isolate; conditions: Staphylococcus epidermidis; S. epidermidis 5253, clinical isolate, 19 h at 35 °C; read-out: minimal inhibitory concentration (MIC)
Method: as §2, §3

Structure (SMILES)	MIC (E. coli ATCC 25922)	MIC (P. aeruginosa ATCC 15442)	MIC (S. aureus ATCC 25923)	MIC (S. aureus NCTC 4163)	MIC (E. coli 520)	MIC (E. coli 600)	MIC (K. pneumoniae 510)	MIC (P. aeruginosa 659)	MIC (S. aureus T5591)	MIC (S. aureus T5592)	MIC (S. epidermidis 4243)	MIC (S. epidermidis 5253)
CC1=C(C)C2(C)CC1(C)C1C(=O)N(Nc3nnnn3-c3ccccc3Br)C(=O)C12 (stereo not drawn) [Compound 3, 2-((1-(2-Bromophenyl)-1H-tetrazol-5-yl)amino)-4,5,6,7-tetramethyl-3a,4,7,7a-tetrahydro-1H-4,7-methanoisoindole-1,3(2H)-dione]	0.4 µg/mL (≈ 0.875 µM)	16 µg/mL (≈ 35 µM)	0.1 µg/mL (≈ 0.219 µM)	0.1 µg/mL (≈ 0.219 µM)	1.6 µg/mL (≈ 3.5 µM)	1.6 µg/mL (≈ 3.5 µM)	3.2 µg/mL (≈ 7 µM)	1.6 µg/mL (≈ 3.5 µM)	0.8 µg/mL (≈ 1.75 µM)	0.8 µg/mL (≈ 1.75 µM)	0.8 µg/mL (≈ 1.75 µM)	0.8 µg/mL (≈ 1.75 µM)
CC1=C(C)C2(C)CC1(C)C1C(=O)N(Nc3nnnn3-c3ccccc3Cl)C(=O)C12 (stereo not drawn) [Compound 2, 2-((1-(2-Chlorophenyl)-1H-tetrazol-5-yl)amino)-4,5,6,7-tetramethyl-3a,4,7,7a-tetrahydro-1H-4,7-methanoisoindole-1,3(2H)-dione]	1.6 µg/mL (≈ 3.88 µM)	25.6 µg/mL (≈ 62 µM)	0.4 µg/mL (≈ 0.969 µM)	0.4 µg/mL (≈ 0.969 µM)	3.2 µg/mL (≈ 7.75 µM)	1.6 µg/mL (≈ 3.88 µM)	3.2 µg/mL (≈ 7.75 µM)	1.6 µg/mL (≈ 3.88 µM)	0.8 µg/mL (≈ 1.94 µM)	0.8 µg/mL (≈ 1.94 µM)	0.8 µg/mL (≈ 1.94 µM)	0.8 µg/mL (≈ 1.94 µM)
CC1=C(C)C2(C)CC1(C)C1C(=O)N(Nc3nnnn3-c3cccc(C(F)(F)F)c3)C(=O)C12 (stereo not drawn) [Compound 1, 4,5,6,7-Tetramethyl-2-((1-(3-(trifluoromethyl)phenyl)-1H-tetrazol-5-yl)amino)-3a,4,7,7a-tetrahydro-1H-4,7-methanoisoindole-1,3(2H)-dione]	0.4 µg/mL (≈ 0.896 µM)	12.8 µg/mL (≈ 28.7 µM)	0.2 µg/mL (≈ 0.448 µM)	0.2 µg/mL (≈ 0.448 µM)	3.2 µg/mL (≈ 7.17 µM)	3.2 µg/mL (≈ 7.17 µM)	3.2 µg/mL (≈ 7.17 µM)	1.6 µg/mL (≈ 3.58 µM)	0.8 µg/mL (≈ 1.79 µM)	0.8 µg/mL (≈ 1.79 µM)	0.8 µg/mL (≈ 1.79 µM)	0.8 µg/mL (≈ 1.79 µM)
CC1=C(C)C2(C)CC1(C)C1C(=O)N(Nc3nnnn3-c3ccc([N+](=O)[O-])cc3)C(=O)C12 (stereo not drawn) [Compound 4, 4,5,6,7-Tetramethyl-2-((1-(4-nitrophenyl)-1H-tetrazol-5-yl)amino)-3a,4,7,7a-tetrahydro-1H-4,7-methanoisoindole-1,3(2H)-dione]	256 µg/mL (≈ 605 µM)	> 256 µg/mL	8 µg/mL (≈ 18.9 µM)	16 µg/mL (≈ 37.8 µM)	256 µg/mL (≈ 605 µM)	256 µg/mL (≈ 605 µM)	256 µg/mL (≈ 605 µM)	256 µg/mL (≈ 605 µM)	32 µg/mL (≈ 75.6 µM)	16 µg/mL (≈ 37.8 µM)	32 µg/mL (≈ 75.6 µM)	16 µg/mL (≈ 37.8 µM)
CC1=C(C)C2(C)CC1(C)C1C(=O)N(Nc3nnnn3-c3ccccc3)C(=O)C12 (stereo not drawn) [Compound 6, 4,5,6,7-Tetramethyl-2-((1-phenyl-1H-tetrazol-5-yl)amino)-3a,4,7,7a-tetrahydro-1H-4,7-methanoisoindole-1,3(2H)-dione]	8 µg/mL (≈ 21.1 µM)	> 256 µg/mL	2 µg/mL (≈ 5.28 µM)	2 µg/mL (≈ 5.28 µM)	8 µg/mL (≈ 21.1 µM)	8 µg/mL (≈ 21.1 µM)	16 µg/mL (≈ 42.3 µM)	16 µg/mL (≈ 42.3 µM)	4 µg/mL (≈ 10.6 µM)	4 µg/mL (≈ 10.6 µM)	4 µg/mL (≈ 10.6 µM)	4 µg/mL (≈ 10.6 µM)

Further lines, results first:

MIC (E. coli ATCC 25922)	MIC (P. aeruginosa ATCC 15442)	MIC (S. aureus ATCC 25923)	MIC (S. aureus NCTC 4163)	MIC (E. coli 520)	MIC (E. coli 600)	MIC (K. pneumoniae 510)	MIC (P. aeruginosa 659)	MIC (S. aureus T5591)	MIC (S. aureus T5592)	MIC (S. epidermidis 4243)	MIC (S. epidermidis 5253)	Structure (SMILES)
16 µg/mL (≈ 39.4 µM)	> 256 µg/mL	4 µg/mL (≈ 9.84 µM)	4 µg/mL (≈ 9.84 µM)	32 µg/mL (≈ 78.7 µM)	32 µg/mL (≈ 78.7 µM)	32 µg/mL (≈ 78.7 µM)	32 µg/mL (≈ 78.7 µM)	16 µg/mL (≈ 39.4 µM)	16 µg/mL (≈ 39.4 µM)	8 µg/mL (≈ 19.7 µM)	16 µg/mL (≈ 39.4 µM)	Cc1ccc(-n2nnnc2NN2C(=O)C3C(C2=O)C2(C(C)C)C=CC3(C)CC2)cc1 (stereo not drawn) [Compound 10, 4-Isopropyl-7-methyl-2-((1-(p-tolyl)-1H-tetrazol-5-yl)amino)-3a,4,7,7a-tetrahydro-1H-4,7-ethanoisoindole-1,3(2H)-dione]
> 256 µg/mL	> 256 µg/mL	8 µg/mL (≈ 18.3 µM)	8 µg/mL (≈ 18.3 µM)	> 256 µg/mL	> 256 µg/mL	> 256 µg/mL	> 256 µg/mL	16 µg/mL (≈ 36.6 µM)	16 µg/mL (≈ 36.6 µM)	16 µg/mL (≈ 36.6 µM)	16 µg/mL (≈ 36.6 µM)	CC(C)C12C=CC(C)(CC1)C1C(=O)N(Nc3nnnn3-c3ccc([N+](=O)[O-])cc3)C(=O)C12 (stereo not drawn) [Compound 8, 4-Isopropyl-7-methyl-2-((1-(4-nitrophenyl)-1H-tetrazol-5-yl)amino)-3a,4,7,7a-tetrahydro-1H-4,7-ethanoisoindole-1,3(2H)-dione]
128 µg/mL (≈ 272 µM)	> 256 µg/mL	64 µg/mL (≈ 136 µM)	64 µg/mL (≈ 136 µM)	8 µg/mL (≈ 17 µM)	8 µg/mL (≈ 17 µM)	16 µg/mL (≈ 33.9 µM)	16 µg/mL (≈ 33.9 µM)	4 µg/mL (≈ 8.49 µM)	4 µg/mL (≈ 8.49 µM)	2 µg/mL (≈ 4.24 µM)	4 µg/mL (≈ 8.49 µM)	CC(C)C12C=CC(C)(CC1)C1C(=O)N(Nc3nnnn3-c3ccccc3Br)C(=O)C12 (stereo not drawn) [Compound 9, 2-((1-(2-Bromophenyl)-1H-tetrazol-5-yl)amino)-4-isopropyl-7-methyl-3a,4,7,7a-tetrahydro-1H-4,7-ethanoisoindole-1,3(2H)-dione]
